Source: patent US6362369B1, “Phthalic acid diamide derivatives fluorine-containing aniline compounds as starting material, agricultural and horticultural insecticides, and a method for application of the insecticides” (Nihon Nohyaku Co., Ltd., priority 1997, dated 2002)

Experiments:
Format in all cases: in vivo
[1] = system: diamondback moth (Plutella xylostella); experiment: Insecticidal effect on diamondback moth (Test Example 1); settings: for Insecticidal effect, Test Example 1 / Insecticidal effect (Test Example 1), judged from mortality: diamondback moth; for Insecticidal effect on diamondback moth (Test Example 1), judged grade: mortality judged according to the criterion shown in Test Example 1; for Insecticidal effect (Test Example 1), judged from mortality: judged by the criterion of Test Example 1
Method in brief: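 Triplicate groups of 10 insects were scored: six days after immersion of oviposited Chinese cabbage seedlings and holding at 25 °C post air-drying, hatched larvae were counted. Mortality derived from these counts and insecticidal effect judged by a set criterion.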

[2] = system: common cutworm (Spodoptera Litura); experiment: Insecticidal effect on common cutworm (Test Example 2); settings: 500 ppm, 25° C.; for Insecticidal effect, Test Example 2: cabbage leaf immersed; for Insecticidal effect, Test Example 2 / Insecticidal effect on common cutworm (Test Example 2), judged grade: eight days after inoculation; for Insecticidal effect on common cutworm (Test Example 2), judged grade / Insecticidal effect (Test Example 2), judged from mortality: cabbage leaf dip; for Insecticidal effect on common cutworm (Test Example 2), judged grade: second-instar larvae; for Insecticidal effect (Test Example 2), judged from mortality: 8 days after inoculation
Method in brief: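 After the treated material air-dries, it goes into a dish, second-instar larvae are added, and the dish is closed. Incubation runs at 25° C. On day eight, dead and living larvae are scored, and the calculated mortality is rated on an effect scale.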

[3] = system: rice leafroller (Cnaphalocrocis medinalis); experiment: Insecticidal effect on rice leafroller (Test Example 3); settings: 500 ppm, 25° C., humidity 70%; for Insecticidal effect, Test Example 3: rice lamina immersed; for Insecticidal effect, Test Example 3 / Insecticidal effect on rice leafroller (Test Example 3), judged grade: four days after inoculation; for Insecticidal effect on rice leafroller (Test Example 3), judged grade / Insecticidal effect (Test Example 3), judged from mortality: rice lamina dip; for Insecticidal effect on rice leafroller (Test Example 3), judged grade: third-instar larvae; for Insecticidal effect (Test Example 3), judged from mortality: 4 days after inoculation
Method in brief: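 Insecticidal effect is judged by a predefined criterion from dead/alive counts four days after infesting air-dried lamina with third-instar larvae, kept on moistened filter paper at 25° C, 70% humidity.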

[4] = mortality judged by criterion of Test Example 1
[5] = common cutworm second-instar larvae
[6] = rice leafroller third-instar larvae
[7] = judged by the mortality criterion of Test Example 1
[8] = second-instar larvae of common cutworm
[9] = third-instar larvae of rice leafroller

Cc1cc(OC(F)(F)C(F)(F)c2ccccc2)ccc1NC(=O)c1cccc(Cl)c1C(=O)NC(C)C [compound 1087]
Insecticidal effect, Test Example 1 [1, 4]: A (100)
Insecticidal effect, Test Example 2 [2, 5]: A (100)
Insecticidal effect, Test Example 3 [3, 6]: A (100)

Cc1cc(C(F)(F)C(F)(F)F)ccc1NC(=O)c1c(I)cccc1C(=O)NCC(F)(F)F [compound 1041]
Insecticidal effect, Test Example 1 [1, 4]: A (100)
Insecticidal effect, Test Example 2 [2, 5]: A (100)
Insecticidal effect, Test Example 3 [3, 6]: A (100)

COc1ccc(NC(=O)c2cccc(Cl)c2C(=O)NC(C)C)c(C)c1C [compound 124]
Insecticidal effect, Test Example 1 [1, 7]: A (100)
Insecticidal effect, Test Example 2 [2, 8]: A (100)
Insecticidal effect, Test Example 3 [3, 9]: A (100)

Cc1c(F)cccc1NC(=O)c1c(F)cccc1C(=O)NC(C)C [compound 548]
Insecticidal effect on diamondback moth (Test Example 1), judged grade [1]: A (100)
Insecticidal effect on common cutworm (Test Example 2), judged grade [2]: A (100)
Insecticidal effect on rice leafroller (Test Example 3), judged grade [3]: A (100)

Cc1c(Cl)cccc1NC(=O)c1cccc(F)c1C(=O)NC(C)C [compound 489]
Insecticidal effect on diamondback moth (Test Example 1), judged grade [1]: A (100)
Insecticidal effect on common cutworm (Test Example 2), judged grade [2]: A (100)
Insecticidal effect on rice leafroller (Test Example 3), judged grade [3]: A (100)

CCN(CC)C(=O)c1c(C(=O)Nc2ccc(C(F)(C(F)(F)F)C(F)(F)F)cc2C)cccc1[N+](=O)[O-] [compound 1119]
Insecticidal effect, Test Example 1 [1, 4]: A (100)
Insecticidal effect, Test Example 2 [2, 5]: A (100)
Insecticidal effect, Test Example 3 [3, 6]: A (100)

Cc1cc(C(F)(F)C(F)(F)F)ccc1NC(=O)c1c(Cl)cccc1C(=O)NC(C)C [compound 223]
Insecticidal effect, Test Example 1 [1, 7]: A (100)
Insecticidal effect, Test Example 2 [2, 8]: A (100)
Insecticidal effect, Test Example 3 [3, 9]: A (100)

Cc1cc(C(F)(F)C(F)(F)F)cc(C)c1NC(=O)c1cccc(I)c1C(=O)NC(C)C [compound 1717]
Insecticidal effect (Test Example 1), judged from mortality [1]: A (100)
Insecticidal effect (Test Example 2), judged from mortality [2, 8]: A (100)
Insecticidal effect (Test Example 3), judged from mortality [3, 9]: A (100)

Cc1cc(C(F)(F)F)ccc1NC(=O)c1cccc(I)c1C(=O)NC(C)C [compound 371]
Insecticidal effect, Test Example 1 [1, 7]: A (100)
Insecticidal effect, Test Example 2 [2, 8]: A (100)
Insecticidal effect, Test Example 3 [3, 9]: A (100)

Cc1cc(Br)ccc1NC(=O)c1cccc(Cl)c1C(=O)NC(C)C [compound 121]
Insecticidal effect, Test Example 1 [1, 7]: A (100)
Insecticidal effect, Test Example 2 [2, 8]: A (100)
Insecticidal effect, Test Example 3 [3, 9]: A (100)

Cc1cc(OC(F)F)ccc1NC(=O)c1c(F)ccc(F)c1C(=O)NC(C)C [compound 581]
Insecticidal effect on diamondback moth (Test Example 1), judged grade [1]: A (100)
Insecticidal effect on common cutworm (Test Example 2), judged grade [2]: B (99-90)
Insecticidal effect on rice leafroller (Test Example 3), judged grade [3]: A (100)

Cc1cc(OC(F)(F)C(F)OC(F)(F)F)ccc1NC(=O)c1ccccc1C(=O)NC(C)C (stereo not drawn) [compound 67]
Insecticidal effect, Test Example 1 [1, 7]: A (100)
Insecticidal effect, Test Example 2 [2, 8]: A (100)
Insecticidal effect, Test Example 3 [3, 9]: A (100)

Cc1cc(Oc2ccc(C(F)(F)F)cn2)ccc1NC(=O)c1c(Cl)cccc1C(=O)NC(C)C [compound 249]
Insecticidal effect, Test Example 1 [1, 7]: A (100)
Insecticidal effect, Test Example 2 [2, 8]: D (79-50)
Insecticidal effect, Test Example 3 [3, 9]: A (100)

Cc1cc(C(F)(F)C(F)(F)F)ccc1N(C)C(=O)c1cccc(I)c1C(=O)N(C)C [compound 1120]
Insecticidal effect, Test Example 1 [1, 4]: A (100)
Insecticidal effect, Test Example 2 [2, 5]: A (100)
Insecticidal effect, Test Example 3 [3, 6]: A (100)

CCNC(=O)c1c(Cl)cccc1C(=O)Nc1ccc(OC(F)F)cc1C [compound 8]
Insecticidal effect, Test Example 1 [1, 7]: A (100)
Insecticidal effect, Test Example 2 [2, 8]: A (100)
Insecticidal effect, Test Example 3 [3, 9]: A (100)

Cc1cc(OC(F)(F)C(F)F)ccc1NC(=O)c1c(Cl)cccc1C(=O)NC(C)C [Compound No. 239, 6-chloro-N^1-[4-(1,1,2,2-tetrafluoroethoxy)-2-methylphenyl]-N^2-isopropylphthalic acid diamide]
Insecticidal effect, Test Example 1 [1, 7]: A (100)
Insecticidal effect, Test Example 2 [2, 8]: A (100)
Insecticidal effect, Test Example 3 [3, 9]: A (100)

Cc1cc(C(F)(F)C(F)(F)F)ccc1NC(=O)c1cccc(Cl)c1C(=O)NC(C)(C)C#Cc1ccsc1 [compound 1628]
Insecticidal effect (Test Example 1), judged from mortality [1]: A (100)
Insecticidal effect (Test Example 2), judged from mortality [2, 8]: A (100)
Insecticidal effect (Test Example 3), judged from mortality [3, 9]: A (100)

Cc1cc(C(F)(F)C(F)(F)F)ccc1NC(=O)c1cccc(I)c1C(=O)NC1CCCC1 [compound 991]
Insecticidal effect, Test Example 1 [1, 4]: A (100)
Insecticidal effect, Test Example 2 [2, 5]: A (100)
Insecticidal effect, Test Example 3 [3, 6]: A (100)

Cc1cc(OC(F)(F)C(F)F)ccc1NC(=O)c1cccc(I)c1C(=O)NC(C)C [compound 390]
Insecticidal effect, Test Example 1 [1, 7]: A (100)
Insecticidal effect, Test Example 2 [2, 8]: A (100)
Insecticidal effect, Test Example 3 [3, 9]: A (100)

Cc1cc(Cl)ccc1NC(=O)c1cccc(I)c1C(=O)NC(C)(C)C [compound 941]
Insecticidal effect, Test Example 1 [1, 4]: A (100)
Insecticidal effect, Test Example 2 [2, 5]: A (100)
Insecticidal effect, Test Example 3 [3, 6]: A (100)

Cc1cc(OC(F)(F)C(F)C(F)(F)F)ccc1NC(=O)c1c(Br)cccc1C(=O)NC(C)C (stereo not drawn) [compound 328]
Insecticidal effect, Test Example 1 [1, 7]: A (100)
Insecticidal effect, Test Example 2 [2, 8]: A (100)
Insecticidal effect, Test Example 3 [3, 9]: A (100)

Cc1cc(I)ccc1NC(=O)c1c(F)cccc1C(=O)NC(C)C [compound 547]
Insecticidal effect on diamondback moth (Test Example 1), judged grade [1]: A (100)
Insecticidal effect on common cutworm (Test Example 2), judged grade [2]: A (100)
Insecticidal effect on rice leafroller (Test Example 3), judged grade [3]: D (79-50)

CC(C)NC(=O)c1c(I)cccc1C(=O)Nc1ccc([S+]([O-])C(F)(F)F)cc1 (stereo not drawn) [compound 1002]
Insecticidal effect, Test Example 1 [1, 4]: A (100)
Insecticidal effect, Test Example 2 [2, 5]: A (100)
Insecticidal effect, Test Example 3 [3, 6]: A (100)

Cc1cc(C(F)(F)C(F)(F)F)ccc1NC(=O)c1cccc(I)c1C(=O)NC(C)CO (stereo not drawn) [compound 1300]
Insecticidal effect, Test Example 1 [1, 4]: A (100)
Insecticidal effect, Test Example 2 [2, 5]: A (100)
Insecticidal effect, Test Example 3 [3, 6]: A (100)

Cc1cc(OC(F)(F)Br)ccc1NC(=O)c1cccc([N+](=O)[O-])c1C(=O)NC(C)C [compound 711]
Insecticidal effect on diamondback moth (Test Example 1), judged grade [1]: A (100)
Insecticidal effect on common cutworm (Test Example 2), judged grade [2]: C (89-80)
Insecticidal effect on rice leafroller (Test Example 3), judged grade [3]: A (100)

Cc1cc(C(F)(F)C(F)(F)F)ccc1NC(=O)c1cccc(Cl)c1C(=O)NC(C)(C)C#Cc1ccc(C(F)(F)F)cc1 [compound 1585]
Insecticidal effect (Test Example 1), judged from mortality [1]: A (100)
Insecticidal effect (Test Example 2), judged from mortality [2, 8]: A (100)
Insecticidal effect (Test Example 3), judged from mortality [3, 9]: A (100)

CCC(C)(C)NC(=O)c1c(F)cccc1C(=O)Nc1ccc(C(F)(C(F)(F)F)C(F)(F)F)cc1C [compound 1153]
Insecticidal effect, Test Example 1 [1, 4]: A (100)
Insecticidal effect, Test Example 2 [2, 5]: A (100)
Insecticidal effect, Test Example 3 [3, 6]: A (100)

Cc1cc(NC(=O)c2cccc(I)c2C(=O)NC(C)C)ccc1C(F)(F)C(F)(F)F [compound 1563]
Insecticidal effect (Test Example 1), judged from mortality [1]: A (100)
Insecticidal effect (Test Example 2), judged from mortality [2, 8]: A (100)
Insecticidal effect (Test Example 3), judged from mortality [3, 9]: A (100)

CC(C)NC(=O)c1ccccc1C(=O)Nc1ccc(OC(F)(F)F)cc1Cl [compound 47]
Insecticidal effect, Test Example 1 [1, 7]: A (100)
Insecticidal effect, Test Example 2 [2, 8]: D (79-50)
Insecticidal effect, Test Example 3 [3, 9]: A (100)

Cc1cc(C(F)(F)C(F)(F)F)ccc1NC(=O)c1cccc(Cl)c1C(=O)NC(C)(C)/C=C/c1ccccc1 [compound 1604]
Insecticidal effect (Test Example 1), judged from mortality [1]: A (100)
Insecticidal effect (Test Example 2), judged from mortality [2, 8]: A (100)
Insecticidal effect (Test Example 3), judged from mortality [3, 9]: A (100)

Cc1cc(C(F)(C(F)(F)F)C(F)(F)F)ccc1NC(=O)c1cccc(I)c1C(=O)NC(C)C [compound 374]
Insecticidal effect, Test Example 1 [1, 7]: A (100)
Insecticidal effect, Test Example 2 [2, 8]: A (100)
Insecticidal effect, Test Example 3 [3, 9]: A (100)

CC(C)NC(=O)c1c(I)cccc1C(=O)Nc1ccc(C=C(Cl)C(F)(F)F)cc1 [compound 917]
Insecticidal effect on diamondback moth (Test Example 1), judged grade [1]: A (100)
Insecticidal effect on common cutworm (Test Example 2), judged grade [2]: A (100)
Insecticidal effect on rice leafroller (Test Example 3), judged grade [3]: A (100)

C#CC(C)(C)NC(=O)c1cccc(Cl)c1C(=O)Nc1ccc(C(F)(F)C(F)(F)F)cc1C [compound 1467]
Insecticidal effect (Test Example 1), judged from mortality [1]: A (100)
Insecticidal effect (Test Example 2), judged from mortality [2, 8]: A (100)
Insecticidal effect (Test Example 3), judged from mortality [3, 9]: A (100)

CC(C)NC(=O)c1c(I)cccc1C(=O)Nc1ccc(C(F)(F)C(F)(F)F)cc1C(F)(F)F [compound 1387]
Insecticidal effect, Test Example 1 [1, 4]: A (100)
Insecticidal effect, Test Example 2 [2, 5]: A (100)
Insecticidal effect, Test Example 3 [3, 6]: A (100)

CC(C)NC(=O)c1c(Cl)cccc1C(=O)Nc1ccc(C(F)(F)C(F)(F)C(F)(F)C(F)(F)F)cc1 [compound 91]
Insecticidal effect, Test Example 1 [1, 7]: A (100)
Insecticidal effect, Test Example 2 [2, 8]: A (100)
Insecticidal effect, Test Example 3 [3, 9]: A (100)

CCN(CC)C(=O)c1c(I)cccc1C(=O)Nc1ccc(OC(F)(F)F)cc1C [compound 1533]
Insecticidal effect (Test Example 1), judged from mortality [1]: A (100)
Insecticidal effect (Test Example 2), judged from mortality [2, 8]: A (100)
Insecticidal effect (Test Example 3), judged from mortality [3, 9]: A (100)
